SMILES strings stand for the structures. Read-outs that look alike come from different tables or passages of the source.

Experiment [1] deals with ERK phosphorylation in KYSE-520 cells. Nature of the experiment: Phospho-ERK cellular assay. It is filed as cell-based. The conditions noted are these: KYSE-520 cells, 2 h at 37° C., phospho-ERK1/2 (Thr202/Tyr204) TR-FRET, read-out: PERK IC50. Put shortly:
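TR-FRET read-out of ERK1/2 Thr202/Tyr204 phosphorylation was taken after overnight antibody incubation at room temperature. Before that, KYSE-520 cells were treated 2 h at 37 °C with compound dilutions and lysed 30 min. Percent inhibition relative to vehicle and cell-free wells was fitted four-parametrically to give IC50.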

Experiment [2] concerns the target SHP-2 enzyme (Met1-Leu525) (Homo sapiens (Human), UniProt Q06124). Nature of the experiment: SHP2 inhibition enzymatic assay. The experiment is classed as biochemical. As to conditions: 0.5 nM SHP-2 activated by 500 nM IRS1 peptide, 75 μM DiFMUP substrate; read-out: SHP2wt-IC50. Put shortly:
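SHP-2 (Met1-Leu525), 0.5 nM, activated with 500 nM IRS1 bis-phosphopeptide, preincubated 30 min with compounds in HEPES pH 7.2 buffer with 5 mM DTT. 75 μM DiFMUP added for 30 min at room temperature, stopped with bpV; fluorescence read. IC50 from four-parameter logistic fit of % inhibition.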

Chain of SHP-2 enzyme (Met1-Leu525) (Q06124 1-525): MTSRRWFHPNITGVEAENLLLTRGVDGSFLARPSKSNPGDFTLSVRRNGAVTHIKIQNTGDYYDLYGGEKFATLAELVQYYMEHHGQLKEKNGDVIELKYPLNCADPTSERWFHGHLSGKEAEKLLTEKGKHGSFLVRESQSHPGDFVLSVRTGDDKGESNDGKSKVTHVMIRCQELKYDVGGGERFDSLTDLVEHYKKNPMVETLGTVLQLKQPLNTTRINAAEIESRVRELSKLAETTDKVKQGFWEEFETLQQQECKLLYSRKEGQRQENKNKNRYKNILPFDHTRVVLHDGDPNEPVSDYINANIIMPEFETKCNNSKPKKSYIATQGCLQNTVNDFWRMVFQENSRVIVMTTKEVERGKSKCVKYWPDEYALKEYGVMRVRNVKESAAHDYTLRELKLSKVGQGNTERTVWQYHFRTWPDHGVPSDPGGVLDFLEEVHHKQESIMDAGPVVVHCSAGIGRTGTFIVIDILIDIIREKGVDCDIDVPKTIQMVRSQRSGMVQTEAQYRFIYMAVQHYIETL

With `NC[C@]1(c2ccccc2F)[C@@H]2CCN(c3cnc4c(-c5ccc(O)cc5F)n[nH]c4n3)C[C@@H]21` [Example 332, 4-(6-((1S,6R,7R)-7-(aminomethyl)-7-(2-fluorophenyl)-3-azabicyclo[4.1.0]heptan-3-yl)-1H-pyrazolo[3,4-b]pyrazin-3-yl)-3-fluorophenol], the 50% inhibitory concentration (IC50) in experiment [1] (Homo sapiens, KYSE-520, 2 h) was below 1000 nM; in experiment [2], below 500 nM.

In the case of `NC[C@]1(c2ccccc2F)[C@@H]2CCN(c3cnc4c(-c5ccn6ncnc6c5)n[nH]c4n3)C[C@@H]21` [Example 333, ((1S,6R,7R)-3-(3-([1,2,4]triazolo[1,5-a]pyridin-7-yl)-1H-pyrazolo[3,4-b]pyrazin-6-yl)-7-(2-fluorophenyl)-3-azabicyclo[4.1.0]heptan-7-yl)methanamine], the half-maximal inhibitory concentration (IC50) in experiment [1] (Homo sapiens, KYSE-520, 2 h) was below 1000 nM; in experiment [2], below 500 nM.

In the case of `NC[C@]1(c2ccccc2F)[C@@H]2CCN(c3cnc4c(C#Cc5ccccc5F)n[nH]c4n3)C[C@@H]21` [Example 334, ((1S,6R,7R)-7-(2-fluorophenyl)-3-(3-((2-fluorophenyl)ethynyl)-1H-pyrazolo[3,4-b]pyrazin-6-yl)-3-azabicyclo[4.1.0]heptan-7-yl)methanamine], the IC50 in experiment [1] (Homo sapiens, KYSE-520, 2 h) is below 1000 nM; in experiment [2], below 500 nM.

Take `NC[C@]1(c2ccccc2F)[C@@H]2CCN(c3cnc4c(-c5ccc6nn(C(F)F)cc6c5Cl)n[nH]c4n3)C[C@@H]21` [Example 335, ((1S,6R,7R)-3-(3-(4-chloro-2-(difluoromethyl)-2H-indazol-5-yl)-1H-pyrazolo[3,4-b]pyrazin-6-yl)-7-(2-fluorophenyl)-3-azabicyclo[4.1.0]heptan-7-yl)methanamine]: the IC50 in experiment [1] (Homo sapiens, KYSE-520, 2 h) was below 1000 nM; in experiment [2] it was below 500 nM.

Take `Cn1ccc2c(Cl)c(-c3n[nH]c4nc(N5CC[C@@H]6[C@H](C5)[C@@]6(CN)c5ccccc5F)cnc34)ccc2c1=O` [Example 336, 6-(6-((1S,6R,7R)-7-(aminomethyl)-7-(2-fluorophenyl)-3-azabicyclo[4.1.0]heptan-3-yl)-1H-pyrazolo[3,4-b]pyrazin-3-yl)-5-chloro-2-methylisoquinolin-1(2H)-one]: the concentration for half-maximal inhibition (IC50) in experiment [1] (Homo sapiens, KYSE-520, 2 h) was below 1000 nM; in experiment [2], below 500 nM.

As to `Cc1nc2cc(-c3n[nH]c4nc(N5CC[C@@H]6[C@H](C5)[C@@]6(CN)c5ccccc5F)cnc34)ccc2[nH]1` [Example 337, ((1S,6R,7R)-7-(2-fluorophenyl)-3-(3-(2-methyl-1H-benzo[d]imidazol-5-yl)-1H-pyrazolo[3,4-b]pyrazin-6-yl)-3-azabicyclo[4.1.0]heptan-7-yl)methanamine], the IC50 in experiment [1] (Homo sapiens, KYSE-520, 2 h) was below 1000 nM; in experiment [2], below 500 nM.

For the compound `Cn1cnc2ccc(-c3n[nH]c4nc(N5CC[C@@H]6[C@H](C5)[C@@]6(CN)c5ccccc5F)cnc34)c(Cl)c21` [Example 338, ((1S,6R,7R)-3-(3-(7-chloro-1-methyl-1H-benzo[d]imidazol-6-yl)-1H-pyrazolo[3,4-b]pyrazin-6-yl)-7-(2-fluorophenyl)-3-azabicyclo[4.1.0]heptan-7-yl)methanamine], the half-inhibitory concentration (IC50) in experiment [1] (Homo sapiens, KYSE-520, 2 h) is below 1000 nM; in experiment [2] it was below 500 nM.

Turning to `NC[C@]1(c2ccccc2F)[C@@H]2CCN(c3cnc4c(-c5ccc6c(=O)[nH]ncc6c5Cl)n[nH]c4n3)C[C@@H]21` [Example 340], the IC50 was below 1000 nM in experiment [1] and below 500 nM in experiment [2].

On to `Cn1c(=O)oc2ccc(-c3n[nH]c4nc(N5CC[C@@H]6[C@H](C5)[C@@]6(CN)c5ccccc5F)cnc34)cc21` [Example 341, 5-(6-((1S,6R,7R)-7-(aminomethyl)-7-(2-fluorophenyl)-3-azabicyclo[4.1.0]heptan-3-yl)-1H-pyrazolo[3,4-b]pyrazin-3-yl)-3-methylbenzo[d]oxazol-2(3H)-one], for which the IC50 in experiment [1] (Homo sapiens, KYSE-520, 2 h) is below 1000 nM; in experiment [2], below 500 nM.

Regarding `Cn1c(N2CC[C@@H]3[C@H](C2)[C@@]3(CN)c2ccccc2F)nc2[nH]nc(-c3ccc(C(N)=O)c4ncccc34)c2c1=O` [Example 343, 5-(6-((1S,6R,7R)-7-(aminomethyl)-7-(2-fluorophenyl)-3-azabicyclo[4.1.0]heptan-3-yl)-5-methyl-4-oxo-4,5-dihydro-1H-pyrazolo[3,4-d]pyrimidin-3-yl)quinoline-8-carboxamide], the 50% inhibitory concentration (IC50) in experiment [1] (Homo sapiens, KYSE-520, 2 h) was above 5000 nM; in experiment [2] it was below 500 nM.

Regarding `Cn1cc2c(Cl)c(-c3n[nH]c4nc(N5CC[C@@H]6[C@H](C5)[C@@]6(CN)c5cc(F)cc(F)c5)n(C)c(=O)c34)ccc2n1` [Example 344, 6-((1S,6R,7R)-7-(aminomethyl)-7-(3,5-difluorophenyl)-3-azabicyclo[4.1.0]heptan-3-yl)-3-(4-chloro-2-methyl-2H-indazol-5-yl)-5-methyl-1,5-dihydro-4H-pyrazolo[3,4-d]pyrimidin-4-one], the IC50 is below 1000 nM in experiment [1] (Homo sapiens, KYSE-520, 2 h) and below 500 nM in experiment [2].

For `NC[C@]1(c2ccccc2F)[C@@H]2CCN(c3cnc4c(-c5ccc(O)nc5C(F)(F)F)n[nH]c4n3)C[C@@H]21` [Example 345, 5-(6-((1S,6R,7R)-7-(aminomethyl)-7-(2-fluorophenyl)-3-azabicyclo[4.1.0]heptan-3-yl)-1H-pyrazolo[3,4-b]pyrazin-3-yl)-6-(trifluoromethyl)pyridin-2-ol], the IC50 was above 5000 nM in experiment [1] (Homo sapiens, KYSE-520, 2 h) and below 500 nM in experiment [2].

In the case of `NC[C@]1(c2ccccc2F)[C@@H]2CCN(c3cnc4c(-c5ccc(S(N)(=O)=O)cc5Cl)n[nH]c4n3)C[C@@H]21` [Example 346, 4-(6-((1S,6R,7R)-7-(aminomethyl)-7-(2-fluorophenyl)-3-azabicyclo[4.1.0]heptan-3-yl)-1H-pyrazolo[3,4-b]pyrazin-3-yl)-3-chlorobenzenesulfonamide], the IC50 in experiment [1] (Homo sapiens, KYSE-520, 2 h) was above 5000 nM; in experiment [2] it was below 500 nM.

In the case of `Cn1cc(-c2n[nH]c3nc(N4CC[C@@H]5[C@H](C4)[C@@]5(CN)c4ccccc4F)cnc23)cn1` [Example 347, ((1S,6R,7R)-7-(2-fluorophenyl)-3-(3-(1-methyl-1H-pyrazol-4-yl)-1H-pyrazolo[3,4-b]pyrazin-6-yl)-3-azabicyclo[4.1.0]heptan-7-yl)methanamine], the IC50 in experiment [1] (Homo sapiens, KYSE-520, 2 h) was above 5000 nM; in experiment [2], below 500 nM.

Take `Cc1c(-c2n[nH]c3nc(N4CC[C@@H]5[C@H](C4)[C@@]5(CN)c4ccccc4F)cnc23)cnn1C` [Example 348, ((1S,6R,7R)-3-(3-(1,5-dimethyl-1H-pyrazol-4-yl)-1H-pyrazolo[3,4-b]pyrazin-6-yl)-7-(2-fluorophenyl)-3-azabicyclo[4.1.0]heptan-7-yl)methanamine]: the IC50 in experiment [1] (Homo sapiens, KYSE-520, 2 h) was below 1000 nM; in experiment [2], below 500 nM.

As to `Cc1nc2c(Cl)c(-c3n[nH]c4nc(N5CC[C@@H]6[C@H](C5)[C@@]6(CN)c5ccccc5F)cnc34)ccc2n1C` [Example 349, ((1S,6R,7R)-3-(3-(4-chloro-1,2-dimethyl-1H-benzo[d]imidazol-5-yl)-1H-pyrazolo[3,4-b]pyrazin-6-yl)-7-(2-fluorophenyl)-3-azabicyclo[4.1.0]heptan-7-yl)methanamine], the concentration for half-maximal inhibition (IC50) in experiment [1] (Homo sapiens, KYSE-520, 2 h) was below 1000 nM; in experiment [2], below 500 nM.

Take `CN1Cc2c(ccc(-c3n[nH]c4nc(N5CC[C@@H]6[C@H](C5)[C@@]6(CN)c5ccccc5F)cnc34)c2Cl)C1=O` [Example 350, 5-(6-((1S,6R,7R)-7-(aminomethyl)-7-(2-fluorophenyl)-3-azabicyclo[4.1.0]heptan-3-yl)-1H-pyrazolo[3,4-b]pyrazin-3-yl)-4-chloro-2-methylisoindolin-1-one]: the 50% inhibitory concentration (IC50) in experiment [1] (Homo sapiens, KYSE-520, 2 h) was below 1000 nM; in experiment [2], below 500 nM.

For the compound `NC[C@]1(c2ccccc2F)[C@@H]2CCN(c3cnc4c(-c5ccc6c(=O)n(CCO)ccc6c5F)n[nH]c4n3)C[C@@H]21` [Example 351, 6-(6-((1S,6R,7R)-7-(aminomethyl)-7-(2-fluorophenyl)-3-azabicyclo[4.1.0]heptan-3-yl)-1H-pyrazolo[3,4-b]pyrazin-3-yl)-5-fluoro-2-(2-hydroxyethyl)isoquinolin-1(2H)-one], the IC50 in experiment [1] (Homo sapiens, KYSE-520, 2 h) is below 1000 nM; in experiment [2], below 500 nM.

Regarding `Cn1c(=O)oc2cc(-c3n[nH]c4nc(N5CC[C@@H]6[C@H](C5)[C@@]6(CN)c5ccccc5F)cnc34)ccc21` [Example 353, 6-(6-((1S,6R,7R)-7-(aminomethyl)-7-(2-fluorophenyl)-3-azabicyclo[4.1.0]heptan-3-yl)-1H-pyrazolo[3,4-b]pyrazin-3-yl)-3-methylbenzo[d]oxazol-2(3H)-one], the IC50 is below 1000 nM in experiment [1] (Homo sapiens, KYSE-520, 2 h) and below 500 nM in experiment [2].

With `NC[C@]1(c2ccccc2F)[C@@H]2CCN(c3cnc4c(-c5cc(F)c(O)cc5F)n[nH]c4n3)C[C@@H]21` [Example 354, 4-(6-((1S,6R,7R)-7-(aminomethyl)-7-(2-fluorophenyl)-3-azabicyclo[4.1.0]heptan-3-yl)-1H-pyrazolo[3,4-b]pyrazin-3-yl)-2,5-difluorophenol], the IC50 was below 1000 nM in experiment [1] (Homo sapiens, KYSE-520, 2 h) and below 500 nM in experiment [2].

With `NC[C@]1(c2ccccc2F)[C@@H]2CCN(c3cnc4c(-c5ccc(F)c(O)c5F)n[nH]c4n3)C[C@@H]21` [Example 355, 3-(6-((1S,6R,7R)-7-(aminomethyl)-7-(2-fluorophenyl)-3-azabicyclo[4.1.0]heptan-3-yl)-1H-pyrazolo[3,4-b]pyrazin-3-yl)-2,6-difluorophenol], the concentration for half-maximal inhibition (IC50) in experiment [1] (Homo sapiens, KYSE-520, 2 h) is below 1000 nM; in experiment [2], below 500 nM.

Values taken from patent US20240109900A1, “AZABICYCLIC SHP2 INHIBITORS” (IRBM S.P.A., priority 2021, published 2024).
